Test results as given in US20040127416A1, “Therapeutic bioconjugates” (priority 2002, published 2004).
Values belong to the molecule of their own block, whether it stands above or below them. Ends that are not written are not given here. glycidyl methacrylate‑derivatized dextran = not defined here

What was measured:
[1] = tested on: TNF-α stimulated, ICAM-expressing BECs; test: inflammatory cell adhesion assay: U937 monocyte adhesion to TNF-α stimulated bovine endothelial cell monolayers; assay type: cell-based; conditions: U937 cells on TNF-α stimulated
Description: This experiment illustrates the activity of the bioconjugate, whose synthesis was described above, in the inflammatory cell adhesion assay. Bovine endothelial cell (BEC) monolayers were established in 24-well culture dishes. At 24 h prior to the assay, normal medium (Minimal Eagle's Medium with 10% fetal bovine serum, 1% ABAM and 1% L-glutamine) (Gibco, CA, USA) was replaced with medium containing tumor necrosis factor α (TNF-α, 10 ng/ml). Following the 24 h incubation period, each sample well received a medium change.
Treated sample groups received medium containing 6% dextran bioconjugate or 6% bioconjugate. […] Two other control treatments were given: a medium change with no dextran or peptide was given to a sample group pretreated with TNF-α, and a positive control that was not pretreated with TNF-α. After a 30-minute incubation period, the medium in all wells was replaced with medium containing the human monocyte cell line U937 (1×10^5/ml) (ATCC, Manassas, Va.). All samples were incubated for another 30 minutes, then washed three times with PBS to remove non-adherent cells. The average number of adherent cells per 100× microscopic field was determined for each sample group.

inflammatory HUVECs = test: in vitro ICAM-1-mediated leukocyte cell adhesion assay: U937 adhesion to TNF-α treated HUVEC monolayers; assay type: cell-based, human; conditions: TNF-α (10 ng/ml, 24 h) treated HUVECs; medium containing 6% dextran bioconjugate, 30 min; n=4 wells
Description: To assess the effect of these peptide-dextran bioconjugates on inflammatory cell adhesion, the following in vitro ICAM-1-mediated leukocyte cell adhesion assay was performed. HUVEC monolayers were established in 24-well culture dishes. At 24 h prior to the assay, normal culture media were replaced with medium containing TNF-α (10 ng/ml). Following the 24 h incubation period, each sample well received a medium change. Treated sample groups received medium containing 6% dextran bioconjugate (dextran conjugated to the A domain peptide CNAFKILVVITDGEK). Untreated control samples received normal medium. Negative sham control samples received medium containing dextran conjugate with a scrambled A domain sequence (KCENGADFTKIIVLV). All samples were then incubated for 30 min prior to the adhesion assay. Medium was removed from all wells following the 30 min incubation and replaced with medium containing U937 monocytic cells (1×10^5/ml). All samples were then incubated for another 30 min. After this incubation period, samples were washed three times with PBS to remove non-adherent monocytes. The samples were then fixed, and an average number of adherent monocytes per 100× microscopic field was determined for each sample group. Statistical comparisons between sample groups (n=4 replicate wells per group) were performed using a student's t-test.

[2] = biological target: T1, ICAM-1 expressed on TNF-alpha stimulated bovine endothelial cells (BEC) (bovine, UniProt Q95132 28-535); test: cell-based or functional assay
T1 sequence (looked up): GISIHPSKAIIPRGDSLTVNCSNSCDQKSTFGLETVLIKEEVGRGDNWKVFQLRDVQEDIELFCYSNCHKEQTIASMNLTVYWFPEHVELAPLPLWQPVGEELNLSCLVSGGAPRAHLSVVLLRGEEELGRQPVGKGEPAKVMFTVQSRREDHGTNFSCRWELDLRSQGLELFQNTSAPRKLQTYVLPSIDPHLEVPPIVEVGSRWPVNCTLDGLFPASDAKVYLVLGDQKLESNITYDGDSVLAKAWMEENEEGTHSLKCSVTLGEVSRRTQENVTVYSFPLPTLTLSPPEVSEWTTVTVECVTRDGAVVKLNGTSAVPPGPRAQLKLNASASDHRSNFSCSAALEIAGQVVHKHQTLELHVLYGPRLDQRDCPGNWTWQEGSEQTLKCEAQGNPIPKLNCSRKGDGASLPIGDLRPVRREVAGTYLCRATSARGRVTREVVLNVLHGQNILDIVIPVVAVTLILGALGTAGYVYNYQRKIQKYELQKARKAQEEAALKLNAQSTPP

Molecule: CTVDLKFGIKNIEAV [inactive peptide, reference compound]
effect on monocyte adhesion (in words) [1]: comparable to no treatment after the TNF-α activation

Molecule: active peptide conjugate: methacroylated dextran (about 70 kD) coupled to synthetic peptide CNAFKILVVITDGEK, based on the ICAM-1-binding portion of integrin αmβ2 (CD11b/CD18) (also: coupled to methacroylated dextran (about 70 kD), site not given here)
effect on monocyte adhesion (in words) ([1]; listed as active dextran bioconjugate): prevented monocyte adhesion to the extent observed in non-stimulated BECS
effect on monocyte adhesion (in words) ([1]; listed as bioconjugate): reducing monocyte adhesion to levels observed in control, non-stimulated cells
U937 cell adhesion reduced by (inflammatory HUVECs): 87.7%

Molecule: inactive peptide conjugate: dextran bioconjugate containing an inactive scrambled sequence of the A-domain peptide, CTVDLKFGIKNIEAV; sham control (also: conjugated to dextran, attachment site not given here) [reference compound]
effect on monocyte adhesion (in words) [1]: inhibited cell adhesion poorly

Molecule: CNAFKILVVITDGEK [synthetic peptide CNAFKILVVITDGEK, unconjugated]
relative monocyte adherence (U937 cells on TNF-alpha activated BEC; negative control = 100%) [2]: 56.3%

Molecule: CTVDLKFGIKNIEAV [inactive scrambled peptide CTVDLKFGIKNIEAV, unconjugated]
relative monocyte adherence (U937 cells on TNF-alpha activated BEC; negative control = 100%) [2]: 95.7%

Now from value to molecule:

relative monocyte adherence (U937 cells on TNF-alpha activated BEC; negative control = 100%) [2]: 3.34%
B1: dextran/peptide bioconjugate: synthetic A domain peptide CNAFKILVVITDGEK coupled to methacroylated (activated) dextran (peptide)
peptide: C(glycidyl methacrylate‑derivatized dextran)NAFKILVVITDGEK
modifications: reading uncertain; also: polyvalent conjugate on dextran, peptides per dextran not given here

relative monocyte adherence (U937 cells on TNF-alpha activated BEC; negative control = 100%) [2]: 55.6%
B2: dextran bioconjugate containing the inactive scrambled A-domain peptide CTVDLKFGIKNIEAV (peptide)
peptide: CTVDLKFGIKNIEAV
modifications: not fully specified (residue 1); also: Cys sulfhydryl coupled to glycidyl methacrylate-derivatized dextran (about 70 kD)
